Patent publication US11006630B2, “Stable suspension concentrate formulation for water-soluble compounds” (FMC Corporation, priority 2006, dated 2021)

Assay: Solubility of N-cyanomethyl-4-(trifluoromethyl)nicotinamide in salt solutions (HPLC of filtrate)
Assay type: physicochemical
Conditions: for Amount of N-cyanomethyl-4-(trifluoromethyl)nicotinamide in Salt Solutions After Filtration: about 18 hours at ambient temperature
Experimental: In order to determine the effectiveness of a salt to decrease the solubility of N-cyanomethyl-4-(trifluoromethyl)nicotinamide in aqueous solutions, the following tests were conducted:
A salt solution consisting of two grams of a salt dissolved in ten grams of water was prepared. Fifty milligrams of N-cyanomethyl-4-(trifluoromethyl)nicotinamide was added and the resulting mixture was subjected to sonication until all the N-cyanomethyl-4-(trifluoromethyl)nicotinamide had dissolved. The solutions were allowed to stand at ambient temperature for about 18 hours. Each solution was filtered and the filtrate was analyzed by HPLC to determine the amount of N-cyanomethyl-4-(trifluoromethyl)nicotinamide which remained dissolved in the water. An experiment in which no salt was added was included as a control.

N#CCNC(=O)c1cnccc1C(F)(F)F [N-cyanomethyl-4-(trifluoromethyl)nicotinamide]
Amount of N-cyanomethyl-4-(trifluoromethyl)nicotinamide in Salt Solutions After Filtration (Control, no salt, 50 mg added to 10 g water): 50.0 mg | Amount of N-cyanomethyl-4-(trifluoromethyl)nicotinamide in Salt Solutions After Filtration (Magnesium Sulfate (Anhydrous), 2 g in 10 g water, 50 mg added): 7.0 mg | Amount of N-cyanomethyl-4-(trifluoromethyl)nicotinamide in Salt Solutions After Filtration (Sodium Sulfate, 2 g in 10 g water, 50 mg added): 10.0 mg | Reduction of solubility in an aqueous solution (concentration of 20% magnesium sulfate): over 90% | Reduction of solubility in an aqueous solution (sodium sulfate): 80%
